Entries after “also recorded” stand apart in the source; their conditions may differ.
Columns and labels:
[1] = test system: Cushing's syndrome patients; test: Cushing's syndrome patient study: coagulation factors, platelets, aPTT; assay type: in vivo, human
From the text: (§1) All patients gave informed consent before participating in any study-related procedures. […] The study protocol called for patient visits to the study site at screening, on Day 1 (baseline), Weeks 2, 4, 6, 8, 10, and 12, and after a 4-week follow-up period for Group 1. For Group 2, the protocol called for patient visits to the study site at screening, on Day 1 (baseline), Weeks 2, 4, 6, 8, 10, 12, 14, and 16, and after a 4-week follow-up period. Patient dosing will be done at home, except on days of study visits. […] The safety protocol also included assessments by physical examination findings, vital signs, ECG results, pregnancy tests, clinical laboratory test results (hematology and chemistry panels), adverse events (AEs), and concomitant medications. […] It ignores noncompliance, protocol deviations, withdrawal, and anything that happens after randomization. In contrast, per-protocol (PP) analysis refers to inclusion in the analysis of only those patients who strictly adhered to the protocol. The PP analysis provides an estimate of the true efficacy of an intervention, i.e., among those who completed the treatment as planned.

progesterone receptor = molecular target: T1, progesterone receptor (Homo sapiens, UniProt P06401); test: Progesterone receptor affinity / binding
T1 sequence (P06401 1-933): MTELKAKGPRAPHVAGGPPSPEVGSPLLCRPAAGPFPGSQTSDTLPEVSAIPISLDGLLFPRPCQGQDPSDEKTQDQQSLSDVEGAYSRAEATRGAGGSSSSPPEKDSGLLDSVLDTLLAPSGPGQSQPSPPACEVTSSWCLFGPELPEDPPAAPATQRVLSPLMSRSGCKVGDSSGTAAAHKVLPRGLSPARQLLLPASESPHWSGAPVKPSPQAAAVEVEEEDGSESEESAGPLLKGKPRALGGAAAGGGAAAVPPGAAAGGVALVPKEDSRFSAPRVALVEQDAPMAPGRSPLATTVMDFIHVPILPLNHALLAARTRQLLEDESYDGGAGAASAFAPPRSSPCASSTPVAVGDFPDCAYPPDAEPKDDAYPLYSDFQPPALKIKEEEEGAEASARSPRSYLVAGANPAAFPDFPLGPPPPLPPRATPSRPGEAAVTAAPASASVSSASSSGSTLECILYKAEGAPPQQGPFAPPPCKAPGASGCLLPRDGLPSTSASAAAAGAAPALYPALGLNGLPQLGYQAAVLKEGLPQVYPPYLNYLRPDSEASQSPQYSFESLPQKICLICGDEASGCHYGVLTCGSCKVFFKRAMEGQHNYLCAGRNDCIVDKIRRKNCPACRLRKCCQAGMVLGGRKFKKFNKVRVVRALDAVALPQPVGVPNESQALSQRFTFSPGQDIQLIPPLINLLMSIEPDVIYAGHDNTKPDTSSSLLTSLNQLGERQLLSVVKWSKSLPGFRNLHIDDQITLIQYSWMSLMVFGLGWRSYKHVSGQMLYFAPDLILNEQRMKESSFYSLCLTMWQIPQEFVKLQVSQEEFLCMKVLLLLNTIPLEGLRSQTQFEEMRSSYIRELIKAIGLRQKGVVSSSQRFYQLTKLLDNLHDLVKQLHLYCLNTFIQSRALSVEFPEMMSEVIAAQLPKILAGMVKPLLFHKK

[2] = test system: Cushing's syndrome patients; test: Cushing's syndrome patient study: safety and adverse events; assay type: in vivo, human
From the text: All patients gave informed consent before participating in any study-related procedures.
The safety protocol also included assessments by physical examination findings, vital signs, ECG results, pregnancy tests, clinical laboratory test results (hematology and chemistry panels), adverse events (AEs), and concomitant medications.

[3] = test system: Cushing's syndrome patients; test: Cushing's syndrome patient study: liver function tests (ALT, AST); assay type: in vivo, human; details: All Subjects, mITT
From the text: as §1

[4] = Abnormal at Baseline, mITT, Group 1 (100-200 mg/day, 12 weeks)
[5] = Abnormal at Baseline, mITT, Group 2 (250-400 mg/day, 16 weeks)
[6] = Abnormal at Baseline, mITT, Overall
[7] = Abnormal at Baseline, mPP, Group 1 (100-200 mg/day, 12 weeks)
[8] = Abnormal at Baseline, mPP, Group 2 (250-400 mg/day, 16 weeks)
[9] = Abnormal at Baseline, mPP, Overall
[10] = All Subjects, mITT, Group 1 (100-200 mg/day, 12 weeks)
[11] = All Subjects, mITT, Group 2 (250-400 mg/day, 16 weeks)
[12] = All Subjects, mPP, Group 1 (100-200 mg/day, 12 weeks)
[13] = All Subjects, mPP, Group 2 (250-400 mg/day, 16 weeks)
[14] = Group 1 (100-200 mg/day, 12 weeks)
[15] = Group 2 (250-400 mg/day, 16 weeks)

Cn1cc(S(=O)(=O)N2CCC3=Cc4c(cnn4-c4ccc(F)cc4)C[C@]3(C(=O)c3cc(C(F)(F)F)ccn3)C2)cn1 [relacorilant, (R)-(1-(4-fluorophenyl)-6-((1-methyl-1H-pyrazol-4-yl)sulfonyl)-4,4a,5,6,7,8-hexahydro-1H-pyrazolo[3,4-g]isoquinolin-4a-yl) (4-(trifluoromethyl)pyridin-2-yl)methanone]
Factor IX mean change from Baseline to Last Observed [1, 4]: −40.8% | Factor X mean change from Baseline to Last Observed [1, 4]: −15.8% | Thrombin-Antithrombin mean change from Baseline to Last Observed [1, 4]: 1.61 µg/L | Factor IX mean change from Baseline to Last Observed [1, 5]: −4.2% | Factor X mean change from Baseline to Last Observed [1, 5]: −22% | Thrombin-Antithrombin mean change from Baseline to Last Observed [1, 5]: -9.83 µg/L | von Willebrand Factor mean change from Baseline to Last Observed [1, 5]: −18.5% | Factor IX mean change from Baseline to Last Observed [1, 6]: −22.5% | Factor X mean change from Baseline to Last Observed [1, 6]: −18.13% | Thrombin-Antithrombin mean change from Baseline to Last Observed [1, 6]: -3.88 µg/L | von Willebrand Factor mean change from Baseline to Last Observed [1, 6]: −18.5% | Factor IX mean change from Baseline to Last Observed [1, 7]: −40.8% | Factor X mean change from Baseline to Last Observed [1, 7]: −15.8% | Thrombin-Antithrombin mean change from Baseline to Last Observed [1, 7]: 1.61 µg/L | Factor IX mean change from Baseline to Last Observed [1, 8]: −4.2% | Factor X mean change from Baseline to Last Observed [1, 8]: −22% | Thrombin-Antithrombin mean change from Baseline to Last Observed [1, 8]: -9.83 µg/L | von Willebrand Factor mean change from Baseline to Last Observed [1, 8]: −18.5% | Factor IX mean change from Baseline to Last Observed [1, 9]: −22.5% | Factor X mean change from Baseline to Last Observed [1, 9]: −18.13% | Thrombin-Antithrombin mean change from Baseline to Last Observed [1, 9]: -3.88 µg/L | von Willebrand Factor mean change from Baseline to Last Observed [1, 9]: −18.5% | Factor IX mean change from Baseline to Last Observed [1, 10]: −11.59% | Factor VIII mean change from Baseline to Last Observed [1, 10]: −11.94% | Factor X mean change from Baseline to Last Observed [1, 10]: −0.06% | Platelet Count mean change from Baseline to Last Observed [1, 10]: −62.82 10^9/L | Thrombin-Antithrombin mean change from Baseline to Last Observed [1, 10]: 1.48 µg/L | aPTT mean change from Baseline to Last Observed [1, 10]: 2.24 s | von Willebrand Factor mean change from Baseline to Last Observed [1, 10]: 2.88% | Factor IX mean change from Baseline to Last Observed [1, 11]: 6.44% | Factor VIII mean change from Baseline to Last Observed [1, 11]: −26.38% | Factor X mean change from Baseline to Last Observed [1, 11]: −8.88% | Platelet Count mean change from Baseline to Last Observed [1, 11]: −74.82 10^9/L | Thrombin-Antithrombin mean change from Baseline to Last Observed [1, 11]: -7.13 µg/L | aPTT mean change from Baseline to Last Observed [1, 11]: 0.5 s | von Willebrand Factor mean change from Baseline to Last Observed [1, 11]: 10.88% | Factor IX mean change from Baseline to Last Observed ([1]; All Subjects, mITT, Overall): −2.85% | Factor VIII mean change from Baseline to Last Observed ([1]; All Subjects, mITT, Overall): −18.94% | Factor X mean change from Baseline to Last Observed ([1]; All Subjects, mITT, Overall): −4.33% | Platelet Count mean change from Baseline to Last Observed ([1]; All Subjects, mITT, Overall): −68.82 10^9/L | Thrombin-Antithrombin mean change from Baseline to Last Observed ([1]; All Subjects, mITT, Overall): -2.69 µg/L | aPTT mean change from Baseline to Last Observed ([1]; All Subjects, mITT, Overall): 1.45 s | von Willebrand Factor mean change from Baseline to Last Observed ([1]; All Subjects, mITT, Overall): 6.76% | Factor IX mean change from Baseline to Last Observed [1, 12]: −11.59% | Factor VIII mean change from Baseline to Last Observed [1, 12]: −11.94% | Factor X mean change from Baseline to Last Observed [1, 12]: −0.06% | Thrombin-Antithrombin mean change from Baseline to Last Observed [1, 12]: 1.48 µg/L | aPTT mean change from Baseline to Last Observed [1, 12]: 2.24 s | von Willebrand Factor mean change from Baseline to Last Observed [1, 12]: 2.88% | Factor IX mean change from Baseline to Last Observed [1, 13]: 6.44% | Factor VIII mean change from Baseline to Last Observed [1, 13]: −26.38% | Factor X mean change from Baseline to Last Observed [1, 13]: −8.88% | Thrombin-Antithrombin mean change from Baseline to Last Observed [1, 13]: -7.13 µg/L | aPTT mean change from Baseline to Last Observed [1, 13]: 0.5 s | von Willebrand Factor mean change from Baseline to Last Observed [1, 13]: 10.88% | Factor IX mean change from Baseline to Last Observed ([1]; All Subjects, mPP, Overall): −2.85% | Factor VIII mean change from Baseline to Last Observed ([1]; All Subjects, mPP, Overall): −18.94% | Factor X mean change from Baseline to Last Observed ([1]; All Subjects, mPP, Overall): −4.33% | Thrombin-Antithrombin mean change from Baseline to Last Observed ([1]; All Subjects, mPP, Overall): -2.69 µg/L | aPTT mean change from Baseline to Last Observed ([1]; All Subjects, mPP, Overall): 1.45 s | von Willebrand Factor mean change from Baseline to Last Observed ([1]; All Subjects, mPP, Overall): 6.76% | coagulation factors (FIG. 3) ([1]; Cushing's syndrome patients): improvement in coagulation factors | onset of improvement/normalization of abnormally elevated coagulation factors ([1]; treatment with relacorilant): as early as after one month | binding to the progesterone receptor (progesterone receptor): lack of binding to the progesterone receptor | progesterone receptor affinity (progesterone receptor; evidence from Cushing's syndrome patient study): no evidence of relacorilant having any progesterone receptor affinity | adverse effects of progesterone receptor antagonism ([2]; Cushing's syndrome patients): no adverse effects of progesterone receptor antagonism | drug induced hypokalemia ([2]; Cushing's syndrome patients): none of the patients suffered hypokalemia; also recorded: without any episodes of drug induced hypokalemia; also recorded: no patients developed drug induced hypokalemia; also recorded: no reported instances | drug induced vaginal bleeding ([2]; Cushing's syndrome patients): No drug-induced hypokalemia or vaginal bleeding; also recorded: no cases of drug induced vaginal bleeding; also recorded: no reported instances | drug-related serious adverse events ([2]; Cushing's syndrome patients): no drug-related serious adverse events | most common treatment-emergent adverse events (TEAEs) ([2]; Cushing's syndrome patients): back pain, edema, headache, and nausea | tolerability ([2]; Cushing's syndrome patients, up to 400 mg/day): generally well tolerated | serious TEAEs ([2]; all from the HD group): Five serious TEAEs were reported in 4 patients | endometrial hypertrophy developed on previous mifepristone ([2]; one patient previously treated with mifepristone, during treatment with relacorilant): completely resolved | safety profile compared with mifepristone ([2]; patients with endogenous Cushing syndrome): significantly better | ALT (SGPT) mean change from Baseline to Last Observed [3, 14]: −7.88 U/L | AST (SGOT) mean change from Baseline to Last Observed [3, 14]: −2.71 U/L | ALT (SGPT) mean change from Baseline to Last Observed [3, 15]: −13.35 U/L | AST (SGOT) mean change from Baseline to Last Observed [3, 15]: −7.31 U/L | ALT (SGPT) mean change from Baseline to Last Observed ([3]; Overall): −10.62 U/L | AST (SGOT) mean change from Baseline to Last Observed ([3]; Overall): −4.94 U/L
